The target in experiment [1] is T1, SARS-CoV-2 NSP3 Mac1 (Severe acute respiratory syndrome coronavirus 2, UniProt P0DTD1). Format: binding. The conditions noted are these: for Refined occupancy: ligand occupancy after refinement (phenix.refine).
The target of experiment [2] is T1, SARS-CoV-2 NSP3 Mac1. Format: binding. More on the design: contains a conserved macrodomain enzyme (Mac1). Conditions: for Spearman est (compound concentration vs apparent Tm): DSF dose responsiveness, 1 µM nsp3 mac1, adj p given. The procedure, abridged: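 ΔTma values are thermal shifts relative to a co-located DMSO-only control, read with 5 µM Fluorescent Yellow dye. Each compound was tested in triplicate over seven concentrations (two-fold steps, top 1,000 or 100 μM). Spearman correlation of concentration versus ΔTma tested whether the shift was dose-responsive.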

[3] abbreviates: PanDDA 1-BDC (background density correction) of the event, crystal soak 100 mM, PanDDA run dmso_34.
The mark [4] stands for this setting: PanDDA event map, 1 minus background density correction, crystal soaking of Mac1.
Where [5] appears, read: crystal soak, compound concentration 100 mM, PanDDA run dmso_34, series docking_lead-like_1.
The mark [6] stands for this setting: ligand modeled in the crystal structure, crystal soak 100 mM, PanDDA run dmso_34.
The mark [7] stands for this setting: overall hit flag: binding in crystallographic soaking or the HTRF-based binding assay.
Where [8] appears, read: maximal thermal upshift vs DMSO control.
Setting [9] is: PanDDA 1-BDC value of the event, crystal soak, compound concentration 100 mM, per dataset.
Where [10] appears, read: crystal soak, compound concentration 100 mM, per dataset.
[11] abbreviates: true hit = binding in crystallographic soaking or the HTRF-based binding assay.
The mark [12] stands for this setting: ligand modeled in the crystal structure, crystal soak, compound concentration 100 mM, per dataset.

Values joined by “and” are separate entries in the source; they are usually repeats but may differ in a detail not shown here. Identical values can stand only once. Like-named read-outs stand apart in the source and are kept apart here.

With `CC(CSc1nnc2[nH]cnn12)c1ccccc1` (stereo not shown) [ZINC000920153280], the 1-BDC at SARS-CoV-2 NSP3 Mac1 [1] (setting [3]) and at SARS-CoV-2 NSP3 Mac1 [1] (setting [4]) was 0.2 in each case. For the same compound, the “PanDDA hit?” value on SARS-CoV-2 NSP3 Mac1 [1] (setting [5]) is “TRUE”. For the same compound, the “Modeled?” value at SARS-CoV-2 NSP3 Mac1 [1] (setting [6]) is “TRUE”. This compound displayed a Refined occupancy on SARS-CoV-2 NSP3 Mac1 [1] (crystal soaking of Mac1) of 40. For the same compound, on SARS-CoV-2 NSP3 Mac1 [1] (setting [7]), the “HIT*” value is given as “Y”. The “Spearman est (compound concentration vs apparent Tm)” value at SARS-CoV-2 NSP3 Mac1 [2] was −0.66. In addition, the “DSF max dTma” value at SARS-CoV-2 NSP3 Mac1 [2] (setting [8]) was found to be 0 °C.

Regarding `CNS(=O)(=O)c1cc(C(=O)N2CCc3nc(N)ncc3C2)co1` [FRESH00014649046], on SARS-CoV-2 NSP3 Mac1 [1] (setting [9]), the 1-BDC stood at 0.07. The “1-BDC (PanDDA)” value on SARS-CoV-2 NSP3 Mac1 [1] (setting [4]) stood at 0.06. Also, the “PanDDA hit?” value on SARS-CoV-2 NSP3 Mac1 [1] (setting [10]) was “TRUE”. Further, the “Modeled?” value at SARS-CoV-2 NSP3 Mac1 [1] (ligand modeled from this dataset, compound concentration 100 mM) is listed as “TRUE”. The same compound showed a Refined occupancy on SARS-CoV-2 NSP3 Mac1 [1] (crystal soaking of Mac1) of 12. In addition, the “HIT*” value on SARS-CoV-2 NSP3 Mac1 [1] (setting [11]) is reported as “Y”. Further, the “Spearman est (compound concentration vs apparent Tm)” value on SARS-CoV-2 NSP3 Mac1 [2] is reported as 0.3. For the same compound, the “DSF max dTma” value at SARS-CoV-2 NSP3 Mac1 [2] (maximal thermal upshift) is 0.29 ˚C.

For the compound `Cc1ccc(-c2nc(Cn3cnc4c(N)nc(N)nc43)cs2)o1` [Z4718398580], the 1-BDC on SARS-CoV-2 NSP3 Mac1 [1] (setting [9]) is 0.28; at SARS-CoV-2 NSP3 Mac1 [1] (PanDDA event map, 1-BDC of the hit dataset, crystal soak, compound concentration 100 mM, listed as Z8580), 0.35 and 0.45; at SARS-CoV-2 NSP3 Mac1 [1] (setting [4]), 0.45. Moreover, at SARS-CoV-2 NSP3 Mac1 [1] (setting [10]), the “PanDDA hit?” value is recorded as “TRUE”. Also, the “Modeled?” value at SARS-CoV-2 NSP3 Mac1 [1] (ligand modeled from this dataset, crystal soak, compound concentration 100 mM) is “TRUE”. At SARS-CoV-2 NSP3 Mac1 [1] (crystal soaking of Mac1), this compound displayed a Refined occupancy of 60. Besides, on SARS-CoV-2 NSP3 Mac1 [1] (setting [7]), the “HIT*” value is “Y”. In addition, at SARS-CoV-2 NSP3 Mac1 [2], the “Spearman est (compound concentration vs apparent Tm)” value worked out at 0.74. Further, at SARS-CoV-2 NSP3 Mac1 [2] (setting [8]), the “DSF max dTma” value came to 0.71 °C.

As to `Cc1nnc2n1CC(C(=O)O)N(C(=O)c1ccc(NC(=O)NC3CC3)cc1)C2` (stereo not shown) [8539_0037], the 1-BDC at SARS-CoV-2 NSP3 Mac1 [1] (setting [9]) and on SARS-CoV-2 NSP3 Mac1 [1] (setting [4]) was 0.4 throughout. Moreover, the “PanDDA hit?” value on SARS-CoV-2 NSP3 Mac1 [1] (setting [10]) is “TRUE”. Moreover, the “Modeled?” value on SARS-CoV-2 NSP3 Mac1 [1] (setting [12]) is on record as “TRUE”. On SARS-CoV-2 NSP3 Mac1 [1] (crystal soaking of Mac1), this compound registered a Refined occupancy of 80. In addition, the “HIT*” value at SARS-CoV-2 NSP3 Mac1 [1] (setting [11]) was “Y”. Also, the “Spearman est (compound concentration vs apparent Tm)” value on SARS-CoV-2 NSP3 Mac1 [2] came to 0.16. Besides, the “DSF max dTma” value on SARS-CoV-2 NSP3 Mac1 [2] (maximal thermal upshift) is reported as 2.36 ˚C.

With `Cc1cc(S(=O)(=O)N2CCC[C@H](C(N)=O)C2)cnc1N` [ZINC001364774273], the 1-BDC at SARS-CoV-2 NSP3 Mac1 [1] (setting [4]) came out at 0.1. Moreover, the Refined occupancy on SARS-CoV-2 NSP3 Mac1 [1] (crystal soaking of Mac1) is 20. Also, the “HIT*” value on SARS-CoV-2 NSP3 Mac1 [1] (setting [11]) is listed as “Y”. In addition, at SARS-CoV-2 NSP3 Mac1 [2], the “Spearman est (compound concentration vs apparent Tm)” value came to 0.3. Besides, at SARS-CoV-2 NSP3 Mac1 [2] (maximal thermal upshift), the “DSF max dTma” value is 0.21 ˚C.

Regarding `CCc1c[nH]c2ncc(-c3c(C(=O)O)c(C)nn3C)cc12` [REAL250003958539], the 1-BDC at SARS-CoV-2 NSP3 Mac1 [1] (PanDDA event map, 1-BDC of the hit dataset, crystal soak, compound concentration 100 mM) was found to be 0.2; on SARS-CoV-2 NSP3 Mac1 [1] (setting [4]) it was 0.14. At SARS-CoV-2 NSP3 Mac1 [1] (crystal soaking of Mac1), this compound registered a Refined occupancy of 28. The “HIT*” value on SARS-CoV-2 NSP3 Mac1 [1] (setting [11]) is on record as “Y”. Besides, on SARS-CoV-2 NSP3 Mac1 [2], the “Spearman est (compound concentration vs apparent Tm)” value amounted to 0.15. Also, the “DSF max dTma” value at SARS-CoV-2 NSP3 Mac1 [2] (maximal thermal upshift) is given as 0.35 ˚C.

Take `Nc1nc(N)c2ncn(Cc3csc(Cl)n3)c2n1` [Z8572]: the “HIT*” value on SARS-CoV-2 NSP3 Mac1 [1] (setting [7]) was “Y”. The “DSF max dTma” value at SARS-CoV-2 NSP3 Mac1 [2] (setting [8]) worked out at 1.1 °C.

Take `CN(CC(=O)O)C(=O)c1ccc2n[nH]c(=O)n2c1` [REAL250003774401]: the 1-BDC on SARS-CoV-2 NSP3 Mac1 [1] (setting [4]) is on record as 0.16. At SARS-CoV-2 NSP3 Mac1 [1] (crystal soaking of Mac1), this compound displayed a Refined occupancy of 32. Moreover, the “HIT*” value on SARS-CoV-2 NSP3 Mac1 [1] (setting [11]) is listed as “Y”. Further, the “Spearman est (compound concentration vs apparent Tm)” value on SARS-CoV-2 NSP3 Mac1 [2] is given as −0.3. Further, the “DSF max dTma” value at SARS-CoV-2 NSP3 Mac1 [2] (maximal thermal upshift) is 0 ˚C.

`O=C(c1ncnc2[nH]ccc12)N1CC=CC12CCCCC2` [ZINC000827900828]: the 1-BDC at SARS-CoV-2 NSP3 Mac1 [1] (setting [3]) and on SARS-CoV-2 NSP3 Mac1 [1] (setting [4]) was 0.18 in each case. The “PanDDA hit?” value at SARS-CoV-2 NSP3 Mac1 [1] (setting [5]) is listed as “TRUE”. For the same compound, the “Modeled?” value on SARS-CoV-2 NSP3 Mac1 [1] (setting [6]) is listed as “TRUE”. The Refined occupancy on SARS-CoV-2 NSP3 Mac1 [1] (crystal soaking of Mac1) is 36. Moreover, the “HIT*” value at SARS-CoV-2 NSP3 Mac1 [1] (setting [7]) is reported as “Y”. In addition, the “Spearman est (compound concentration vs apparent Tm)” value on SARS-CoV-2 NSP3 Mac1 [2] is recorded as −0.37. The “DSF max dTma” value at SARS-CoV-2 NSP3 Mac1 [2] (setting [8]) amounted to 0.93 °C.

Consider `Nc1ncnc(N2CCCC(CCC(=O)O)C2)c1Cl` (stereo not shown) [REAL250003296134], for which the 1-BDC on SARS-CoV-2 NSP3 Mac1 [1] (setting [9]) and at SARS-CoV-2 NSP3 Mac1 [1] (setting [4]) was 0.09 throughout. The “PanDDA hit?” value on SARS-CoV-2 NSP3 Mac1 [1] (setting [10]) is “TRUE”. Besides, the “Modeled?” value at SARS-CoV-2 NSP3 Mac1 [1] (setting [12]) is recorded as “TRUE”. This compound registered a Refined occupancy on SARS-CoV-2 NSP3 Mac1 [1] (crystal soaking of Mac1) of 18. The “HIT*” value on SARS-CoV-2 NSP3 Mac1 [1] (setting [11]) is on record as “Y”. On SARS-CoV-2 NSP3 Mac1 [2], the “Spearman est (compound concentration vs apparent Tm)” value was found to be 0.65. Further, the “DSF max dTma” value at SARS-CoV-2 NSP3 Mac1 [2] (maximal thermal upshift) is listed as 0.34 ˚C.

Values taken from PMC9926234, “Iterative computational design and crystallographic screening identifies potent inhibitors targeting the Nsp3 macrodomain of SARS-CoV-2” (Proceedings of the National Academy of Sciences of the …, 2023).
